Data on 61 compounds can be found in patent publication US7504400B2, “MTP inhibiting aryl piperydines or piperazines substituted with 5-membered heterocycles” (Janssen Pharmaceutica N.V., priority 2004, dated 2009).

Each structure is given as a SMILES string.

This test concerns Secretion of ApoB. The experiment in a line: Quantification of the secretion of ApoB in HepG2 cells. It is filed as cell-based. To be noted: Homo sapiens, HepG2, 24 h, 24 hours of incubation with test compound, immunoprecipitation of apoB from medium, read-out: pIC50 value (=-log IC50 value), secretion of ApoB (converted). The gist of the method: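 At 70% confluency, HepG2 cells in MEM with 10% FCS received compound or DMSO carrier (0.4% final) for 24 h. Secreted apoB in cleared medium immunoprecipitated with sheep anti-apoB then rabbit anti-sheep antibody (24 h each, 8° C); pellet radioactivity counted by liquid scintillation; IC50 expressed as pIC50.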
For the compound `CCCOC(=O)C(c1ccccc1)N1CCN(c2ccc(-n3cnn(C(C)C)c3=O)cc2)CC1` (stereo not shown) [Compound 38], the IC50 is 316 to 3160 nM. For the compound `CCOC(=O)[C@@H](c1ccccc1)N1CCN(c2ccc(-n3ccn([C@@H](C)c4ccccc4F)c3=O)cc2)CC1` (stereo in doubt) [Compound 275], the IC50 is 316 to 3160 nM.

As for `CCOC(=O)C(c1ccccc1)N1CCC(c2ccc(-n3ccn([C@H](C)c4cccc(C(F)(F)F)c4)c3=O)cc2)CC1` (stereo partly shown) [Compound 276], the IC50 was 31.6 to 316 nM. The result for `COC(=O)c1ccc(CNC(=O)C(c2ccccc2)N2CCN(c3ccc(-n4ccn(C(C)C)c4=O)c(C)c3)CC2)cc1` (stereo not shown) [Compound 293] reads 316 to 3160 nM; that for `CCCCCNC(=O)C(c1ccccc1)N1CCN(c2ccc(-n3cnn(C(C)C)c3=O)cn2)CC1` (stereo not shown) [Compound 44], 31.6 to 316 nM; that for `COC(=O)C(c1ccc(Br)cc1)N1CCN(c2ccc(-n3cnn(C(C)C)c3=O)cc2)CC1` (stereo not shown) [Compound 329], 316 to 3160 nM. Then `CCOC(=O)c1cc(NC(=O)C(Cc2ccccc2)C2CCN(c3ccc(-n4cnn(C(C)C)c4=O)cc3)CC2)ccc1C` (stereo not shown) [Compound 374], with 316 to 3160 nM; and `CCCOC(=O)C(CN1CCN(c2ccc(-n3cnn(C(C)C)c3=O)cc2)CC1)c1ccccc1` (stereo not shown) [Compound 41], with 316 to 3160 nM. Then `Cc1ccc(C)c(NC(=O)C(c2ccccc2)N2CCN(c3ccc(-n4cnn(C(C)C)c4=O)cc3)CC2)c1` (stereo not shown) [Compound 54], with 31.6 to 316 nM; and `CCOC(=O)c1cc(NC(=O)C(Cc2ccccc2)C2CCN(c3ccc(-n4cnn(C(C)c5ccccc5)c4=O)cc3)CC2)ccc1C` (stereo not shown) [Compound 373], with 316 to 3160 nM; and `CC(C)n1ncn(-c2ccc(N3CCN(C(C(=O)Nc4ccc5c(c4)OCO5)c4ccccc4)CC3)cc2)c1=O` (stereo not shown) [Compound 200], with 31.6 to 316 nM. In the case of `CC(C)n1ncn(-c2ccc(N3CCN(CCCC(C(=O)Nc4ccccc4)c4ccccc4)CC3)cc2)c1=O` (stereo not shown) [Compound 160], the IC50 was 316 to 3160 nM.

For `CC(C)n1ncn(-c2ccc(N3CCN(C(C(=O)Nc4ccc5c(c4)CCC5)c4ccccc4)CC3)c(Cl)c2)c1=O` (stereo not shown) [Compound 215], the IC50 is under 31.6 nM. The result for `CCNC(=O)C(c1ccccc1)N1CCN(c2ccc(-n3ncn(C(C)C)c3=O)cc2)CC1` (stereo not shown) [Compound 113] reads 31.6 to 316 nM. The result for `COc1cc(NC(=O)C(c2ccccc2)N2CCN(c3ccc(-n4cnn(C(C)C)c4=O)cc3)CC2)cc(C(F)(F)F)c1` (stereo not shown) [Compound 64] reads 31.6 to 316 nM; that for `COCCNC(=O)C(c1ccccc1)N1CCN(c2ccc(-n3cnn(C(C)C)c3=O)cc2)CC1` (stereo not shown) [Compound 131], 316 to 3160 nM. Then `C=CCNC(=O)C(c1ccccc1)N1CCN(c2ccc(-n3cnn(C(C)C)c3=O)cn2)CC1` (stereo not shown) [Compound 49], with 316 to 3160 nM.

As to `CCOC(=O)[C@H](NC(=O)CC1CCN(c2ccc(-n3cnn(C(C)c4ccccc4)c3=O)cc2)CC1)c1ccccc1` (stereo partly shown) [Compound 394], the IC50 was 31.6 to 316 nM.

For the compound `CCOC(=O)C(c1ccccc1)N1CCN(c2ccc(-n3cnn(C(C)c4ccccc4)c3=O)cc2)CC1` (stereo not shown) [Compound 265], the IC50 is 316 to 3160 nM.

Turning to `CC(C)n1cnn(-c2ccc(N3CCN(C(C(=O)NCc4ccccn4)c4ccccc4)CC3)cc2)c1=O` (stereo not shown) [Compound 121], the IC50 is 316 to 3160 nM.

As to `CC(C)n1ncn(-c2ccc(N3CCN(C(C(=O)NCc4ccccc4)c4ccccc4)CC3)cc2)c1=O` (stereo not shown) [Compound 165], the half-inhibitory concentration (IC50) was 316 to 3160 nM. With `COCCNC(=O)C(CN1CCN(c2ccc(-n3cnn(C(C)C)c3=O)cc2)CC1)c1ccccc1` (stereo not shown) [Compound 105], the IC50 was 316 to 3160 nM.

As for `CCOC(=O)[C@H](c1ccccc1)N1CCN(c2ccc(-n3ccn([C@H](C)c4ccccc4)c3=O)cc2)CC1` (relative stereo) [Compound 267], the IC50 is under 31.6 nM. For `CC(C)n1ncn(-c2ccc(N3CCN(C(C(=O)NCC(F)(F)F)c4ccccc4)CC3)cc2)c1=O` (stereo not shown) [Compound 166], the IC50 is 316 to 3160 nM. `CC(C)n1ncn(-c2ccc(N3CCN(C(C(=O)NCc4ccc(S(C)(=O)=O)cc4)c4ccccc4)CC3)cc2)c1=O` (stereo not shown) [Compound 73]: the IC50 was 316 to 3160 nM.

Take `CCOC(=O)[C@H](c1ccccc1)N1CCN(c2ccc(-n3ccn(C(C)c4cc(F)ccc4F)c3=O)cc2)CC1` (stereo in doubt) [Compound 340]: the IC50 was 31.6 to 316 nM.

As for `CCOC(=O)[C@H](c1ccccc1)N1CCN(c2ccc(-n3ccn(C(C)c4cc(F)cc(F)c4)c3=O)cc2)CC1` (stereo in doubt) [Compound 342], the IC50 was 31.6 to 316 nM. The result for `CCOC(=O)C(c1ccccc1)C1CCN(c2ccc(-n3ccn([C@H](C)c4cccc5ccccc45)c3=O)cc2)CC1` (stereo partly shown) [Compound 245] reads 316 to 3160 nM; that for `CCOC(=O)C(c1ccccc1)N1CCC(c2ccc(-n3ccn([C@@H](C)c4ccc(Cl)cc4)c3=O)cc2)CC1` (stereo partly shown) [Compound 236], 316 to 3160 nM; that for `CC(C)n1ncn(-c2ccc(N3CCN(C(C(=O)NCCc4ccccn4)c4ccccc4)CC3)cc2)c1=O` (stereo not shown) [Compound 72], 316 to 3160 nM. As to `CCCC(C(=O)OCC)N1CCN(c2ccc(-n3cnn(C(C)C)c3=O)cc2)CC1` (stereo not shown) [Compound 9], the IC50 was 316 to 3160 nM. On to `CCOC(=O)c1ccc(CNC(=O)C(Cc2ccccc2)C2CCN(c3ccc(-n4cnn(C(C)c5ccccc5)c4=O)cc3)CC2)cc1C` (stereo not shown) [Compound 379], for which the IC50 is 316 to 3160 nM. Then `CC(C)n1ncn(-c2ccc(N3CCN(C(C(=O)Nc4ccc5c(c4)CC(NC(=O)OC(C)(C)C)C5)c4ccccc4)CC3)cc2)c1=O` (stereo not shown) [Compound 306], with under 31.6 nM; and `CCOC(=O)[C@H](c1ccccc1)N1CCN(c2ccc(-n3ccn(C(C)c4cccc(F)c4F)c3=O)cc2)CC1` (stereo in doubt) [Compound 338], with 31.6 to 316 nM. Then `CCC(C)n1ncn(-c2ccc(N3CCN(C(C(=O)NC(C)C)c4ccccc4)CC3)cc2)c1=O` (stereo not shown) [Compound 21], with 31.6 to 316 nM; and `CCCCCn1ncn(-c2ccc(N3CCC(C(C(=O)Nc4ccccc4)c4ccccc4)CC3)cc2)c1=O` (stereo not shown) [Compound 51], with 31.6 to 316 nM. With `CC(C)n1ncn(-c2ccc(N3CCN(CC(C(=O)Nc4ccccc4)c4ccccc4)CC3)cc2)c1=O` (stereo not shown) [Compound 129], the IC50 was 316 to 3160 nM. Then `CC(C)NC(=O)C(c1ccccc1)C1CCN(c2ccc(-n3cnn(CC4CC4)c3=O)cc2)CC1` (stereo not shown) [Compound 91], with 316 to 3160 nM; and `COC(=O)c1cccc(CNC(=O)C(c2ccccc2)N2CCN(c3ccc(-n4ccn(C(C)C)c4=O)c(C)c3)CC2)c1` (stereo not shown) [Compound 290], with 316 to 3160 nM; and `COC(=O)C(c1ccccc1Cl)N1CCC(c2ccc(-n3cnn(C(C)C)c3=O)cc2)CC1` (stereo not shown) [Compound 319], with 31.6 to 316 nM.

`CC(C)n1ncn(-c2ccc(N3CCN(C(C(=O)Nc4ccc(Cl)cc4)c4ccccc4)CC3)cc2)c1=O` (stereo not shown) [Compound 55]: the IC50 is 31.6 to 316 nM. The result for `CC(C)n1ncn(-c2ccc(N3CCN(C(C(=O)Nc4ccccc4O)c4ccccc4)CC3)cc2)c1=O` (stereo not shown) [Compound 56] reads 316 to 3160 nM; that for `O=C(NCc1ccccc1)C(c1ccccc1)N1CCN(c2ccc(-n3nc(-c4ccccc4)n(-c4ccccc4)c3=O)cc2)CC1` (stereo not shown) [Compound 25], 316 to 3160 nM. Then `CC(C)NC(=O)C(c1ccccc1)N1CCC(c2ccc(-n3cnn(C(C)C)c3=O)cc2)CC1` (stereo not shown) [Compound 140], with 31.6 to 316 nM; and `CCOC(=O)C(c1ccccc1)C1CCN(c2ccc(-n3ccn([C@@H](C)c4ccc(C)cc4)c3=O)cc2)CC1` (stereo partly shown) [Compound 254], with 316 to 3160 nM; and `CCOC(=O)C(c1ccccc1)N1CCC(c2ccc(-n3ccn([C@@H](COC)c4ccccc4)c3=O)cc2)CC1` (stereo partly shown) [Compound 240], with 316 to 3160 nM. As for `CC(C)n1ncn(-c2ccc(N3CCN(C(C(=O)NCc4ccccn4)c4ccccc4)CC3)nc2)c1=O` (stereo not shown) [Compound 45], the IC50 is 316 to 3160 nM.

As to `CCCCCn1ncn(-c2ccc(N3CCC(C(C(=O)NC(C)C)c4ccccc4)CC3)cc2)c1=O` (stereo not shown) [Compound 89], the IC50 is 316 to 3160 nM. The result for `O=C(NCc1ccccc1)C(c1ccccc1)C1CCN(c2ccc(-n3cnn(Cc4ccccc4)c3=O)cc2)CC1` (stereo not shown) [Compound 158] reads 31.6 to 316 nM; that for `CCOC(=O)c1cc(NC(=O)C(c2ccccc2)C2CCN(c3ccc(-n4cnn(C(C)c5ccccc5)c4=O)cc3)CC2)ccc1C` (stereo not shown) [Compound 369], 31.6 to 316 nM; that for `COC(=O)CCc1csc(NC(=O)C(c2ccccc2)N2CCC(c3ccc(-n4cnn(C(C)C)c4=O)cc3)CC2)n1` (stereo not shown) [Compound 352], 316 to 3160 nM. `COC(=O)C(c1ccc(Br)cc1)N1CCC(c2ccc(-n3cnn(C(C)C)c3=O)cc2)CC1` (stereo not shown) [Compound 323]: the IC50 is 316 to 3160 nM. For `CCNC(=O)C(c1ccccc1)N1CCN(c2ccc(-n3cnn(C(C)CC)c3=O)cc2)CC1` (stereo not shown) [Compound 175], the IC50 is 31.6 to 316 nM. With `CCOC(=O)CC1CCN(c2ccc(-n3cnn(C(C)c4ccccc4)c3=O)cc2)CC1` (stereo not shown) [Compound 386], the IC50 is 316 to 3160 nM. In the case of `CCNC(=O)C(c1ccccc1)N1CCN(c2ccc(-n3cnn(C(C)C)c3=O)cc2)CC1` (stereo not shown) [Compound 163], the IC50 is 31.6 to 316 nM. Then `CCCNC(=O)C(c1ccccc1)N1CCN(c2ccc(-n3nc(-c4ccccc4)n(C(C)C)c3=O)cc2)CC1` (stereo not shown) [Compound 30], with 316 to 3160 nM; and `CCOC(=O)C(c1ccccc1)N1CCC(c2ccc(-n3ccn([C@@H](C)c4ccccc4F)c3=O)cc2)CC1` (stereo partly shown) [Compound 279], with 316 to 3160 nM. `CCNC(=O)C(c1ccccc1)N1CCN(c2ccc(-n3cnn(C(C)C)c3=O)cn2)CC1` (stereo not shown) [Compound 46]: the IC50 was 316 to 3160 nM. Regarding `CCOC(=O)CCNC(=O)CC1CCN(c2ccc(-n3cnn(C(C)c4ccccc4)c3=O)cc2)CC1` (stereo not shown) [Compound 402], the IC50 is 316 to 3160 nM.

On to `CC(C)N1CCN(c2ccc(N3CCN(C(C(=O)Nc4ccc5c(c4)CCC5)c4ccccc4)CC3)cc2)C1=O` (stereo not shown) [Compound 203], for which the IC50 is under 31.6 nM.

Consider `CCOC(=O)C(c1ccccc1)N1CCN(c2ccc(-n3cnn(C(C)c4ccc(F)cc4)c3=O)cc2)CC1` (stereo not shown) [Compound 266], for which the half-inhibitory concentration (IC50) is 316 to 3160 nM.
